Laboratory results: PubChem BioAssay AID2060902 (Molecular Pharmacology Branch, DTP, NCI, 2025)

Test system: 485368-065-R3-J5-PDC spheroids with HUVEC/MSC, viability
Assay: Anticancer human tumor 485368-065-R3-J5-PDC patient-derived pancreatic carcinoma cell line growth inhibition [RAS]
Details: for IC50: curve of first compound; for viability, T/C: stronger effect = lower value
Method in brief: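 Tumour cells grown as complex spheroids with HUVEC endothelial cells and mesenchymal stem cells, treated with RAS pathway inhibitor combinations. Each agent spans half-log steps from near clinical Cmax, or 10 microM where Cmax is unknown.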

[1] = second compound 0.000949 µM, first compound 0.0316 µM
[2] = second compound 0.000949 µM, first compound 0.1 µM
[3] = second compound 0.000949 µM, first compound 0.316 µM
[4] = second compound 0.000949 µM, first compound 1 µM
[5] = second compound 0.000949 µM, first compound 3.16 µM
[6] = second compound 0.000949 µM, first compound 10 µM
[7] = second compound 0.003 µM, first compound 0.0316 µM
[8] = second compound 0.003 µM, first compound 0.1 µM
[9] = second compound 0.003 µM, first compound 0.316 µM
[10] = second compound 0.003 µM, first compound 1 µM
[11] = second compound 0.003 µM, first compound 3.16 µM
[12] = second compound 0.003 µM, first compound 10 µM
[13] = second compound 0.00949 µM, first compound 0.0316 µM
[14] = second compound 0.00949 µM, first compound 0.1 µM
[15] = second compound 0.00949 µM, first compound 0.316 µM
[16] = second compound 0.00949 µM, first compound 1 µM
[17] = second compound 0.00949 µM, first compound 3.16 µM
[18] = second compound 0.00949 µM, first compound 10 µM
[19] = second compound 0.03 µM, first compound 0.0316 µM
[20] = second compound 0.03 µM, first compound 0.1 µM
[21] = second compound 0.03 µM, first compound 0.316 µM
[22] = second compound 0.03 µM, first compound 1 µM
[23] = second compound 0.03 µM, first compound 3.16 µM
[24] = second compound 0.03 µM, first compound 10 µM
[25] = second compound 0.0949 µM, first compound 0.0316 µM
[26] = second compound 0.0949 µM, first compound 0.1 µM
[27] = second compound 0.0949 µM, first compound 0.316 µM
[28] = second compound 0.0949 µM, first compound 1 µM
[29] = second compound 0.0949 µM, first compound 3.16 µM
[30] = second compound 0.0949 µM, first compound 10 µM
[31] = second compound 0.3 µM, first compound 0.0316 µM
[32] = second compound 0.3 µM, first compound 0.1 µM
[33] = second compound 0.3 µM, first compound 0.316 µM
[34] = second compound 0.3 µM, first compound 1 µM
[35] = second compound 0.3 µM, first compound 3.16 µM
[36] = second compound 0.3 µM, first compound 10 µM
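Further: spheroids exposed to agents for seven days before readout.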

SMILES: CC(C)NCC(C(=O)N1CCN(c2ncnc3c2C(C)CC3O)CC1)c1ccc(Cl)cc1 (stereo unspecified) + CCn1c(-c2cccnc2C(C)OC)c2c3cc(ccc31)N1CCOC(CC(NC(=O)C(C(C)C)N(C)C(=O)C3(F)CCN(C(=O)C#CC(C)(C)N(C)C)CC3)C(=O)N3CCCC(N3)C(=O)OCC(C)(C)C2)C1
- IC50 (second compound 0.000949 µM): > 10 µM
- IC50 (second compound 0.003 µM): > 10 µM
- IC50 (second compound 0.00949 µM): > 10 µM
- IC50 (second compound 0.03 µM): > 10 µM
- IC50 (second compound 0.0949 µM): > 10 µM
- IC50 (second compound 0.3 µM): > 10 µM
- viability, T/C [1]: 102%
- viability, T/C [2]: 99.4%
- viability, T/C [3]: 95.9%
- viability, T/C [4]: 79.9%
- viability, T/C [5]: 74.6%
- viability, T/C [6]: 55.8%
- viability, T/C [7]: 88.7%
- viability, T/C [8]: 94%
- viability, T/C [9]: 93.8%
- viability, T/C [10]: 81.7%
- viability, T/C [11]: 81.4%
- viability, T/C [12]: 62.2%
- viability, T/C [13]: 95.7%
- viability, T/C [14]: 103%
- viability, T/C [15]: 97%
- viability, T/C [16]: 87.6%
- viability, T/C [17]: 76.8%
- viability, T/C [18]: 66.1%
- viability, T/C [19]: 89.1%
- viability, T/C [20]: 104%
- viability, T/C [21]: 88.4%
- viability, T/C [22]: 84.7%
- viability, T/C [23]: 70.2%
- viability, T/C [24]: 58.6%
- viability, T/C [25]: 99.9%
- viability, T/C [26]: 104%
- viability, T/C [27]: 89.5%
- viability, T/C [28]: 80.7%
- viability, T/C [29]: 69.8%
- viability, T/C [30]: 56.2%
- viability, T/C [31]: 98.7%
- viability, T/C [32]: 101%
- viability, T/C [33]: 90.7%
- viability, T/C [34]: 78.8%
- viability, T/C [35]: 70.3%
- viability, T/C [36]: 49.7%

SMILES: CC(Nc1ccc2c(c1)OCCn1cc(N3C(=O)OCC3C(F)F)nc1-2)C(N)=O (stereo unspecified) + CCn1c(-c2cccnc2C(C)OC)c2c3cc(ccc31)N1CCOC(CC(NC(=O)C(C(C)C)N(C)C(=O)C3(F)CCN(C(=O)C#CC(C)(C)N(C)C)CC3)C(=O)N3CCCC(N3)C(=O)OCC(C)(C)C2)C1
- IC50 (second compound 0.000949 µM): > 10 µM
- IC50 (second compound 0.003 µM): > 10 µM
- IC50 (second compound 0.00949 µM): > 10 µM
- IC50 (second compound 0.03 µM): > 10 µM
- IC50 (second compound 0.0949 µM): > 10 µM
- IC50 (second compound 0.3 µM): > 10 µM
- viability, T/C [1]: 106%
- viability, T/C [2]: 93.9%
- viability, T/C [3]: 94.2%
- viability, T/C [4]: 72.2%
- viability, T/C [5]: 70.4%
- viability, T/C [6]: 65.8%
- viability, T/C [7]: 90.8%
- viability, T/C [8]: 93%
- viability, T/C [9]: 93.7%
- viability, T/C [10]: 86.2%
- viability, T/C [11]: 98.9%
- viability, T/C [12]: 56.8%
- viability, T/C [13]: 94.4%
- viability, T/C [14]: 101%
- viability, T/C [15]: 84.9%
- viability, T/C [16]: 96%
- viability, T/C [17]: 85.9%
- viability, T/C [18]: 55.7%
- viability, T/C [19]: 96.6%
- viability, T/C [20]: 91%
- viability, T/C [21]: 99%
- viability, T/C [22]: 82.5%
- viability, T/C [23]: 95.5%
- viability, T/C [24]: 65%
- viability, T/C [25]: 103%
- viability, T/C [26]: 94.1%
- viability, T/C [27]: 78.6%
- viability, T/C [28]: 93.7%
- viability, T/C [29]: 77.9%
- viability, T/C [30]: 62.1%
- viability, T/C [31]: 100%
- viability, T/C [32]: 101%
- viability, T/C [33]: 86.6%
- viability, T/C [34]: 83.7%
- viability, T/C [35]: 84%
- viability, T/C [36]: 71.8%

SMILES: O=C(c1ccc(F)c(F)c1Nc1ccc(I)cc1F)N1CC(O)([C@@H]2CCCCN2)C1 + CCn1c(-c2cccnc2C(C)OC)c2c3cc(ccc31)N1CCOC(CC(NC(=O)C(C(C)C)N(C)C(=O)C3(F)CCN(C(=O)C#CC(C)(C)N(C)C)CC3)C(=O)N3CCCC(N3)C(=O)OCC(C)(C)C2)C1
- IC50 (second compound 0.000949 µM): 0.0586 µM
- IC50 (second compound 0.003 µM): 0.0665 µM
- IC50 (second compound 0.00949 µM): 0.0595 µM
- IC50 (second compound 0.03 µM): 0.0545 µM
- IC50 (second compound 0.0949 µM): 0.0655 µM
- IC50 (second compound 0.3 µM): 0.0404 µM
- viability, T/C (second compound 0.000949 µM, first compound 0.00316 µM): 101%
- viability, T/C (second compound 0.000949 µM, first compound 0.01 µM): 78.4%
- viability, T/C [1]: 64.1%
- viability, T/C [2]: 37.7%
- viability, T/C [3]: 26.4%
- viability, T/C [4]: 11.7%
- viability, T/C (second compound 0.003 µM, first compound 0.00316 µM): 97.3%
- viability, T/C (second compound 0.003 µM, first compound 0.01 µM): 88.4%
- viability, T/C [7]: 60.1%
- viability, T/C [8]: 40.7%
- viability, T/C [9]: 31.5%
- viability, T/C [10]: 13.9%
- viability, T/C (second compound 0.00949 µM, first compound 0.00316 µM): 87%
- viability, T/C (second compound 0.00949 µM, first compound 0.01 µM): 73.6%
- viability, T/C [13]: 60.9%
- viability, T/C [14]: 39.4%
- viability, T/C [15]: 30.1%
- viability, T/C [16]: 14%
- viability, T/C (second compound 0.03 µM, first compound 0.00316 µM): 89.6%
- viability, T/C (second compound 0.03 µM, first compound 0.01 µM): 76.8%
- viability, T/C [19]: 62.5%
- viability, T/C [20]: 36.8%
- viability, T/C [21]: 24%
- viability, T/C [22]: 15%
- viability, T/C (second compound 0.0949 µM, first compound 0.00316 µM): 88.3%
- viability, T/C (second compound 0.0949 µM, first compound 0.01 µM): 75.3%
- viability, T/C [25]: 64%
- viability, T/C [26]: 39.8%
- viability, T/C [27]: 28.5%
- viability, T/C [28]: 10%
- viability, T/C (second compound 0.3 µM, first compound 0.00316 µM): 91.4%
- viability, T/C (second compound 0.3 µM, first compound 0.01 µM): 74.7%
- viability, T/C [31]: 51.1%
- viability, T/C [32]: 36.3%
- viability, T/C [33]: 23.5%
- viability, T/C [34]: 8.18%
